Data: patent publication US10035804B2, “Spirodiamine derivatives as aldosterone synthase inhibitors” (Hoffmann-La Roche Inc., priority 2014, dated 2018)

Tests used:
human CYP11B2 = human CYP11B2 (Homo sapiens (Human), UniProt P19099); test: G-402 cellular enzyme assay, human CYP11B2 (aldosterone release); type: cell-based; conditions: G-402 cells expressing human CYP11B2; 1 μM Deoxycorticosterone; aldosterone in supernatant after 16 h
Source text: (§1) Herein we identified the use of the G-402 cell line as a host cell to ectopically express (transiently or stably) enzymes of the CYP11 family. Specifically we developed stable G-402 cells expressing ectopically human CYP11B1, human CYP11B2, human CYP11A1, cynmolgus CYP11B1 or cynomolgus CYP11B2 enzyme activity. Importantly the identified cell line G-402 expresses co-factors (adrenodoxin and adrenodoxin reductase) important for the activity of the CYP11 family and no relevant enzyme activity of the CYP11 family (in comparison to H295R cells) was detected in these cells. Therefore the G-402 cell line is uniquely suited as a host cell for the ectopic expression of enzymes from the CYP11 family.
(§2) G-402 cells can be obtained from ATCC (CRL-1440) and were originally derived from a renal leiomyoblastoma.
(§3) The expression plasmids contains the ORF for either human/cyno CYP11B1 or CYP11B2 under the control of a suitable promoter (CMV-promoter) and a suitable resistance marker (neomycin). Using standard techniques the expression plasmid is transfected into G-402 cells and these cells are then selected for expressing the given resistance markers. Individual cell-clones are then selected and assessed for displaying the desired enzymatic activity using 11-Deoxycorticosterone (Cyp11B2) or 11-Deoxycortisol (Cyp11B1) as a substrate.
(§4) G-402 cells expressing CYP11 constructs were established as described above and maintained in McCoy's 5a Medium Modified, ATCC Catalog No. 30-2007 containing 10% FCS and 400 μg/ml G418 (Geneticin) at 37° C. under an atmosphere of 5% CO2/95% air. Cellular enzyme assays were performed in DMEM/F12 medium containing 2.5% charcoal treated FCS and appropriate concentration of substrate (0.3-10 uM 11-Deoxycorticosterone, 11-Deoxycortisol or Corticosterone). For assaying enzymatic activity, cells were plated onto 96 well plates and incubated for 16 h. An aliquot of the supernatant is then transferred and analyzed for the concentration of the expected product (Aldosterone for CYP11B2; Cortisol for CYP11B1). The concentrations of these steroids can be determined using HTRF assays from CisBio analyzing either Aldosterone or Cortisol.
(§5) Inhibition of the release of produced steroids can be used as a measure of the respective enzyme inhibition by test compounds added during the cellular enzyme assay. The dose dependent inhibition of enzymatic activity by a compound is calculated by means of plotting added inhibitor concentrations (x-axes) vs. measured steroid/product level (y-axes). The inhibition is then calculated by fitting the following 4-parameter sigmoidal function (Morgan-Mercer-Flodin (MMF) model) to the raw data points using the least squares method:
(§6) [formula] wherein, A is the maximum y value, B is the EC50 factor determined using XLFit, C is the minimum y value and D is the slope value.
(§7) EC50 values for compounds claimed herein were tested with the G402-based assay system described. Cyp11B2 enzyme activity was tested in presence of 1 μM Deoxycorticosterone and variable amounts of inhibitors; Cyp11B1 enzyme activity was tested in presence of 1 μM Deoxycortisol and variable amounts of inhibitors.

human CYP11B1 = human CYP11B1 (Homo sapiens (Human), UniProt P15538); test: G-402 cellular enzyme assay, human CYP11B1 (cortisol release); type: cell-based; conditions: G-402 cells expressing human CYP11B1; 1 μM Deoxycortisol; cortisol in supernatant after 16 h
Source text: as §1, §2, §3, §4, §5, §6, §7

Sequence of human CYP11B1 (P15538 25-503): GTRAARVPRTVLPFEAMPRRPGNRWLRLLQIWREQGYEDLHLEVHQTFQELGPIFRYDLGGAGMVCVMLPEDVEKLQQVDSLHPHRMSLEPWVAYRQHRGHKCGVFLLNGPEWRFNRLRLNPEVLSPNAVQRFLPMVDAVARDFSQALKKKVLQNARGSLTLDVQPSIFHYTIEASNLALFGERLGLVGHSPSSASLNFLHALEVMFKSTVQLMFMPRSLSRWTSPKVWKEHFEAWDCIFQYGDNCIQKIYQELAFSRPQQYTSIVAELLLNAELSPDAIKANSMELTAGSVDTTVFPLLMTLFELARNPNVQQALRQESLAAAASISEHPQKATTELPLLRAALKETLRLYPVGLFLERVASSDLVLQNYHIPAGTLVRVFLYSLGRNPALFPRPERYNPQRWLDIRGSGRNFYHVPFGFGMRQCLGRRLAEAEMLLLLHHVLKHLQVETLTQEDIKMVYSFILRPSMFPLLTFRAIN
Sequence of human CYP11B2 (P19099 25-503): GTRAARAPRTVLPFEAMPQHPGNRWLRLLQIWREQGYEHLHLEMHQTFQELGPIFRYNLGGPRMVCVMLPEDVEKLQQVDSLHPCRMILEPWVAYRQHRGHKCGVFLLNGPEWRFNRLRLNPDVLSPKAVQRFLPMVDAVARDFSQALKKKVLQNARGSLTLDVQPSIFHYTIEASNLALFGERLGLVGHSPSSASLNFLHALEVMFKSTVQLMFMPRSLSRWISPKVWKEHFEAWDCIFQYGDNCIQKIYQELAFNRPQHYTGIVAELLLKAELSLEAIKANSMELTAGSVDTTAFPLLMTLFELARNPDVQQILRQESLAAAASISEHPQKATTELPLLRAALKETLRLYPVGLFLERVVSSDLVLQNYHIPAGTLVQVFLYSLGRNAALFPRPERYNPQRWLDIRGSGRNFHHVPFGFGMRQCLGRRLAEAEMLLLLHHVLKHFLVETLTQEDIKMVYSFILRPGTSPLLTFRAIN

Structure (SMILES) | EC50 (human CYP11B2) [nM] | EC50 (human CYP11B1) [nM]
Cn1cc(C(=O)N2CC3(C2)CN(c2cncc(N4C(=O)c5ccc(Cl)cc5C4(C)C)c2)C3)cn1 [Example 1, 5-Chloro-3,3-dimethyl-2-[5-[2-(1-methylpyrazole-4-carbonyl)-2,6-diazaspiro[3.3]-heptan-6-yl]-3-pyridyl]isoindolin-1-one] | 0.002 | 11.3
CCn1cc(C(=O)N2CC3(C2)CN(c2cncc(N4C(=O)c5ccc(Cl)cc5C4(C)C)c2)C3)cn1 [Example 2, 5-Chloro-2-[5-[2-(1-ethylpyrazole-4-carbonyl)-2,6-diazaspiro[3.3]heptan-6-yl]-3-pyridyl]-3,3-dimethyl-isoindolin-1-one] | 0.003 | 11.1
CC(C)n1cc(C(=O)N2CC3(C2)CN(c2cncc(N4C(=O)c5ccc(Cl)cc5C4(C)C)c2)C3)cn1 [Example 3, 5-Chloro-2-[5-[2-(1-isopropylpyrazole-4-carbonyl)-2,6-diazaspiro[3.3]heptan-6-yl]-3-pyridyl]-3,3-dimethyl-isoindolin-1-one] | 0.0083 | 11.1
Cn1ccnc1C(=O)N1CC2(C1)CN(c1cncc(N3C(=O)c4ccc(Cl)cc4C3(C)C)c1)C2 [Example 4, 5-Chloro-3,3-dimethyl-2-[5-[2-(1-methylimidazole-2-carbonyl)-2,6-diazaspiro[3.3]heptan-6-yl]-3-pyridyl]isoindolin-1-one] | 0.0099 | 1.1
Cn1nccc1C(=O)N1CC2(C1)CN(c1cncc(N3C(=O)c4ccc(Cl)cc4C3(C)C)c1)C2 [Example 5, 5-Chloro-3,3-dimethyl-2-[5-[2-(2-methylpyrazole-3-carbonyl)-2,6-diazaspiro[3.3]heptan-6-yl]-3-pyridyl]isoindolin-1-one] | 0.145 | 15.7
Cn1cncc1C(=O)N1CC2(C1)CN(c1cncc(N3C(=O)c4ccc(Cl)cc4C3(C)C)c1)C2 [Example 6, 5-Chloro-3,3-dimethyl-2-[5-[2-(3-methylimidazole-4-carbonyl)-2,6-diazaspiro[3.3]heptan-6-yl]-3-pyridyl]isoindolin-1-one] | 0.0117 | 7.94
Cc1ccncc1C(=O)N1CC2(C1)CN(c1cncc(N3C(=O)c4ccc(Cl)cc4C3(C)C)c1)C2 [Example 7, 5-Chloro-3,3-dimethyl-2-[5-[2-(4-methylpyridine-3-carbonyl)-2,6-diazaspiro[3.3]heptan-6-yl]-3-pyridyl]isoindolin-1-one] | 0.0138 | 25.7
Cn1cc(C(=O)N2CC3(C2)CN(c2cncc(N4C(=O)c5ccc(C#N)cc5C4(C)C)c2)C3)cn1 [Example 8, 3,3-Dimethyl-2-[5-[2-(1-methylpyrazole-4-carbonyl)-2,6-diazaspiro[3.3]heptan-6-yl]-3-pyridyl]-1-oxo-isoindoline-5-carbonitrile] | 0.112 | > 30
CCn1cc(C(=O)N2CC3(C2)CN(c2cncc(N4C(=O)c5ccc(C#N)cc5C4(C)C)c2)C3)cn1 [Example 9, 2-[5-[2-(1-Ethylpyrazole-4-carbonyl)-2,6-diazaspiro[3.3]heptan-6-yl]-3-pyridyl]-3,3-dimethyl-1-oxo-isoindoline-5-carbonitrile] | 0.009 | 24.4
CC(C)n1cc(C(=O)N2CC3(C2)CN(c2cncc(N4C(=O)c5ccc(C#N)cc5C4(C)C)c2)C3)cn1 [Example 10, 2-[5-[2-(1-Isopropylpyrazole-4-carbonyl)-2,6-diazaspiro[3.3]heptan-6-yl]-3-pyridyl]-3,3-dimethyl-1-oxo-isoindoline-5-carbonitrile] | 0.0155 | 25.6
Cn1ccnc1C(=O)N1CC2(C1)CN(c1cncc(N3C(=O)c4ccc(C#N)cc4C3(C)C)c1)C2 [Example 11, 3,3-Dimethyl-2-[5-[2-(1-methylimidazole-2-carbonyl)-2,6-diazaspiro[3.3]heptan-6-yl]-3-pyridyl]-1-oxo-isoindoline-5-carbonitrile] | 0.0252 | 4.76
Cn1nccc1C(=O)N1CC2(C1)CN(c1cncc(N3C(=O)c4ccc(C#N)cc4C3(C)C)c1)C2 [Example 12, 3,3-Dimethyl-2-[5-[2-(2-methylpyrazole-3-carbonyl)-2,6-diazaspiro[3.3]heptan-6-yl]-3-pyridyl]-1-oxo-isoindoline-5-carbonitrile] | 0.191 | > 30
Cn1cncc1C(=O)N1CC2(C1)CN(c1cncc(N3C(=O)c4ccc(C#N)cc4C3(C)C)c1)C2 [Example 13, 3,3-Dimethyl-2-[5-[2-(3-methylimidazole-4-carbonyl)-2,6-diazaspiro[3.3]heptan-6-yl]-3-pyridyl]-1-oxo-isoindoline-5-carbonitrile] | 0.0278 | 26.4
Cc1ccncc1C(=O)N1CC2(C1)CN(c1cncc(N3C(=O)c4ccc(C#N)cc4C3(C)C)c1)C2 [Example 14, 3,3-Dimethyl-2-[5-[2-(4-methylpyridine-3-carbonyl)-2,6-diazaspiro[3.3]heptan-6-yl]-3-pyridyl]-1-oxo-isoindoline-5-carbonitrile] | 0.0407 | 21
COc1ccc2c(n1)C(C)(C)N(c1cncc(N3CC4(CN(C(=O)c5cnn(C)c5)C4)C3)c1)C2=O [Example 15, 2-Methoxy-7,7-dimethyl-6-[5-[2-(1-methylpyrazole-4-carbonyl)-2,6-diazaspiro[3.3]heptan-6-yl]-3-pyridyl]pyrrolo[3,4-b]pyridin-5-one] | 0.0205 | 18.9
COc1ccc2c(n1)C(C)(C)N(c1cncc(N3CC4(CN(C(=O)c5cnccc5C)C4)C3)c1)C2=O [Example 16, 2-Methoxy-7,7-dimethyl-6-[5-[2-(4-methylpyridine-3-carbonyl)-2,6-diazaspiro[3.3]heptan-6-yl]-3-pyridyl]pyrrolo[3,4-b]pyridin-5-one] | 0.0827 | 29.3
Cn1cc(C(=O)N2CCC3(CC2)CN(c2cncc(N4C(=O)c5ccc(Cl)cc5C4(C)C)c2)C3)cn1 [Example 56, 5-Chloro-3,3-dimethyl-2-[5-[7-(1-methylpyrazole-4-carbonyl)-2,7-diazaspiro[3.5]nonan-2-yl]-3-pyridyl]isoindolin-1-one] | – | 18.8
CCn1cc(C(=O)N2CCC3(CC2)CN(c2cncc(N4C(=O)c5ccc(Cl)cc5C4(C)C)c2)C3)cn1 [Example 58, 5-Chloro-2-[5-[7-(1-ethylpyrazole-4-carbonyl)-2,7-diazaspiro[3.5]nonan-2-yl]-3-pyridyl]-3,3-dimethyl-isoindolin-1-one] | – | 9.64
Cn1cc(C(=O)N2CC3(CCN(c4cncc(N5C(=O)c6ccc(Cl)cc6C5(C)C)c4)CC3)C2)cn1 [Example 59, 5-Chloro-3,3-dimethyl-2-[5-[2-(1-methylpyrazole-4-carbonyl)-2,7-diazaspiro[3.5]nonan-7-yl]-3-pyridyl]isoindolin-1-one] | – | 0.819
CCn1cc(C(=O)N2CC3(CCN(c4cncc(N5C(=O)c6ccc(Cl)cc6C5(C)C)c4)CC3)C2)cn1 [Example 60, 5-Chloro-2-[5-[2-(1-ethylpyrazole-4-carbonyl)-2,7-diazaspiro[3.5]nonan-7-yl]-3-pyridyl]-3,3-dimethyl-isoindolin-1-one] | – | 0.892
Cc1ccncc1C(=O)N1CC2(CCN(c3cncc(N4C(=O)c5ccc(Cl)cc5C4(C)C)c3)CC2)C1 [Example 61, 5-Chloro-3,3-dimethyl-2-[5-[2-(4-methylpyridine-3-carbonyl)-2,7-diazaspiro[3.5]nonan-7-yl]-3-pyridyl]isoindolin-1-one] | – | 2.11
